# ChEMBL document CHEMBL5729608, “Oxazolidinone antibiotic compounds and process of preparation” (2023)
# Biological target: Voltage-gated inwardly rectifying potassium channel KCNH2 (Homo sapiens, UniProt Q12809)
# Test: hERG Inhibition Assay: Compounds were solubilised to 100 mM in DMSO before dilution in HBPS to 300 μM. 6-Point concentration-response curves were generated using 3.16-fold serial dilutions from the top test concentration. Procedure: Electrophysiological recordings were made from a Chinese Hamster Ovary cell line stably expressing the full-length hERG potassium channel. Single cell ionic currents were measured in whole-cell patch clamp configuration at room temperature (21-23° C.) using the QPatch HTX platform (Sophion). Intracellular solution contained (mM): 120 KF, 20 KCl, 10 EGTA, 10 HEPES and was buffered to pH 7.3. The extracellular solution (HEPES-buffered physiological saline, HBPS) contained (mM): 145 NaCl, 4 KCl, 2 CaCl2, 1 MgCl2, 10 HEPES, 10 glucose, buffered to pH7.4. Cells were clamped at a holding potential of −80 mV. Cells were stepped to +20 mV for 2 s then −40 mV for 3s before returning to the holding potential. This sweep was repeated 10 times at 10 s intervals. hERG currents were measured from the tail step and referenced to the holding current.
# Voltage-gated inwardly rectifying potassium channel KCNH2, sequence (Q12809 whole entry): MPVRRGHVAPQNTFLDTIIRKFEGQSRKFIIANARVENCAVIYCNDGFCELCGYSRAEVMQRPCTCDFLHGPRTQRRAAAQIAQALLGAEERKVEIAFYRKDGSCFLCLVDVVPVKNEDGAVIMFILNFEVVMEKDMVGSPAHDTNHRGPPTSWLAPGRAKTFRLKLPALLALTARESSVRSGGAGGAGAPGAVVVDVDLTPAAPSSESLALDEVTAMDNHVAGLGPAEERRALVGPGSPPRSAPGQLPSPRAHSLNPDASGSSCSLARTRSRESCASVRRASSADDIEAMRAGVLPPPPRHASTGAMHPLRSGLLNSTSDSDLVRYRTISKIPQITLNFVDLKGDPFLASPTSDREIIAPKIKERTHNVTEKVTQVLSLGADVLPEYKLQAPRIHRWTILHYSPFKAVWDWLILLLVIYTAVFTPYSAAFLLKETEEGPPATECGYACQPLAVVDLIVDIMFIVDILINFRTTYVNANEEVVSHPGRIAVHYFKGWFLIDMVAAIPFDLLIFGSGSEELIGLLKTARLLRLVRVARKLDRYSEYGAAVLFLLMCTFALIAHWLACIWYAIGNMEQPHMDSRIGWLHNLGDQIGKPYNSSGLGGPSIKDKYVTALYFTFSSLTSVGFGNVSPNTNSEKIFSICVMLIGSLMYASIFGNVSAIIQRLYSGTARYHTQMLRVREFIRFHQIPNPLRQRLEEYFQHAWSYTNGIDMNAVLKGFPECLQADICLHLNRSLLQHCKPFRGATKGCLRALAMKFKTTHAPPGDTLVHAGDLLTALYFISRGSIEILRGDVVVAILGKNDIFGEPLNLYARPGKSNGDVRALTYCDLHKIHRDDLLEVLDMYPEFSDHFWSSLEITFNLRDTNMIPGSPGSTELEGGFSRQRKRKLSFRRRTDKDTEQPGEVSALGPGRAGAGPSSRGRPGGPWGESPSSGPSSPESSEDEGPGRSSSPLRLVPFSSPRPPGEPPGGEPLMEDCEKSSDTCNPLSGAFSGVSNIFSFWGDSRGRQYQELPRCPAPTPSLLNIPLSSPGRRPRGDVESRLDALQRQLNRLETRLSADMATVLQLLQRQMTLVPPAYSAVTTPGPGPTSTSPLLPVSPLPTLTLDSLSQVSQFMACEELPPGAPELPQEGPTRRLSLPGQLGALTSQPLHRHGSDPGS
smiles,measurement,value
Cn1c(=O)cnc2cc(F)c(OCCNC[C@H]3CN(c4cnc5c(n4)NC(=O)CO5)C(=O)O3)nc21,IC50,98 µM
